Source: the SangsterLogP compilation

assay: method code SF-AS, from PMID: 2985094; settings: pH 7.4

logD	Compound
-2.27	Cn1c(=O)[nH]c2ncn(C)c2c1=N
-1.49	COCCn1cnc2nc(=O)n(C)c(N)c21
-1.22	COCn1cnc2c(=N)n(C)c(=O)[nH]c21
-1.1	CCOCCn1cnc2[nH]c(=O)n(C)c(=N)c21
-1.04	Cn1c(=O)[nH]c2ncn(CCCC(=O)c3ccc(F)cc3)c2c1=N
-0.45	CCOC(=O)CCn1cnc2c(=N)n(C)c(=O)[nH]c21
-0.24	C=COCCn1cnc2c(=N)n(C)c(=O)[nH]c21
-1.2	CC(=O)OCCn1cnc2[nH]c(=O)n(C)c(=N)c21
-2.41	COCn1cnc2[nH]c(=O)n(C)c(=N)c21
-1.52	COCCOCn1cnc2c(=N)n(C)c(=O)[nH]c21
-0.96	COCCn1cnc2c(N)n(C)c(=O)nc21
-0.13	CCSCCn1cnc2[nH]c(=O)n(C)c(=N)c21
0	CCSCCn1cnc2c(=N)n(C)c(=O)[nH]c21
-0.78	C=COCCn1cnc2[nH]c(=O)n(C)c(=N)c21
-0.4	CCOCCn1cnc2c(N)n(C)c(=O)nc21
-0.57	C=CCn1cnc2c(=N)n(C)c(=O)[nH]c21
0.44	Cn1c(=O)[nH]c2c(ncn2CCCC(=O)c2ccc(F)cc2)c1=N
-2.41	COCn1cnc2nc(=O)n(C)c(N)c21
0.65	Cn1c(N)c2ncn(Cc3ccccc3)c2nc1=O
0.07	Cn1c(N)c2c(ncn2Cc2ccccc2)nc1=O
1.25	Cn1c(=O)[nH]c2ncn(CCc3ccc(Br)cc3)c2c1=N
